In patent publication US11241013B2, “Benzimidazole compounds as agricultural chemicals” (REDAG CROP PROTECTION LTD, priority 2017, dated 2022):

How the values were obtained:
[1] = test system: Phytophthora cactorum; assay: 96 well plate test; type: cell-based; conditions: 96 well plate assay, agar amended to 20, 2, 0.2 and 0.02 ppm, assessed after 2 to 3 days, read-out: EC50 Phytophthora spp. (Phytophthora cactorum)
Description: Compounds were screened in 96 well plates with 10 compounds per plate. Each compound was screened using agar amended to 20, 2, 0.2 and 0.02 ppm, with proline at 50 and 10 ppm and 0.2% DMSO used as controls. Each test concentration and standard was replicated twice on a plate. Compounds were screened against Phytophthora cactorum. The agar used in the test is a 1% potato dextrose agar. 1000 spores/mL agar were added to the appropriate agar. A ×10 stock solution in 2% DMSO was produced for each dose i.e. 200, 20, 2 and 0.2 ppm, and 10 μl of this added to the appropriate wells on the plate. An equivalent amount of 2% DMSO and proline stock at 500 and 100 ppm were added for the controls. To each well 90 μl of the appropriate agar spore suspension was added to give the required final well concentrations. Plates were incubated at room temperature (18° C.) and assessed after 2 to 3 days. The amount of pathogen growth in each well was compared to the DMSO controls and an EC50 concentration was calculated. The results are provided in Table 1 in which H represents no control detected at 20 ppm, G represents no control detected at 2 ppm (where the highest test concentration in the assay was 2 ppm), F represents an EC50 of ≥20 ppm, E represents an EC50 of less than 20 ppm.

[2] = test system: Pythium ultimum; assay: Amended agar assay; type: cell-based; design: key to % control Pythium ultimum 2 ppm / % control Pythium ultimum 20 ppm: D: no control detected at this concentration; C: up to 50% control; B: from 50 to 99% control; A: a control of greater than 99%, i.e. no detectable colony growth; conditions: amended PDA agar, 2 ppm, % reduction in colony growth vs control plate, 18° C.; for inhibition of growth at 2 ppm: Globisporangium ultimum
Description: Testing was carried out on potato dextrose agar (PDA) amended with each compound at a test concentration of typically 20 ppm or 2 ppm. Amended agar was poured into three replicate 9 cm petri dishes. Each replicate dish was inoculated in the centre with a 5 mm agar plug taken from the leading edge of a culture aged between 2 and 7 days old; the age of the culture was dependant on the growth rate of the pathogen being tested. The test pathogens were Pythium ultimum and Phytophthora cinnamomi. Plates were incubated at 18° C. and the diameter of each colony measured before growth on the fastest growing plate reached the plate edge. This varied between 2 and 7 days depending on the growth rate of test pathogens. The % reduction in colony growth compared to the control plate was calculated for each pathogen. The results are provided in Table 1, in which D represents no control detected at this concentration; C represents up to 50% control; B from 50 to 99% control; and A represents a control of greater than 99%, i.e. no detectable colony growth.
Alternatively, or in addition, the same assay was conducted at descending test concentrations with 5-fold dilutions typically down to 0.032 ppm though sometimes as low as 0.00026 ppm, and an EC50 (the concentration at which 50% control would be achieved) was determined. The results are provided in Table 1 in which G represents no control detected at 20 ppm, F represents an EC50 of ≥20 ppm and E represents an EC50 of less than 20 ppm.

For `Cn1ccc(CNc2cccc(COc3nc4ccccc4n3-c3nnnn3C)n2)n1` [Example 45], the EC50 [1] was under 20 mg/L and the inhibition of growth at 2 ppm [2] was over 99%.
In the case of `Cn1nnnc1-n1c(OCc2cccc(NCC3CC3)n2)nc2ccccc21` [Example 47], the EC50 [1] is reported as under 20 mg/L and the inhibition of growth at 2 ppm [2] is reported as over 99%.
Compound `CNc1cccc(COc2nc3ccccc3n2-c2nnnn2C)n1` [Example 48, N-Methyl-6-(((1-(1-methyl-1H-tetrazol-5-yl)-1H-benzo[d]imidazol-2-yl)oxy)methyl)pyridin-2-amine] has an EC50 [1] of under 20 mg/L and an inhibition of growth at 2 ppm [2] of over 99%.
For `CC(C)Nc1cccc(COc2nc3ccccc3n2-c2nnnn2C)n1` [Example 50, N-Isopropyl-6-(((1-(1-methyl-1H-tetrazol-5-yl)-1H-benzo[d]imidazol-2-yl)oxy)methyl)pyridin-2-amine], the EC50 [1] was under 20 mg/L and the inhibition of growth at 2 ppm [2] was over 99%.
`CC(C)CCCNc1cccc(COc2nc3ccccc3n2-c2nnnn2C)n1` [Example 51] gave an EC50 [1] of under 20 mg/L and an inhibition of growth at 2 ppm [2] of over 99%.
`CSc1ccnc(COc2nc3ccccc3n2-c2nnnn2C)c1` [Example 55] showed an EC50 [1] of under 20 mg/L and an inhibition of growth at 2 ppm [2] of over 99%.
For `COc1ccc(COc2nc3ccccc3n2-c2nnnn2C)nc1` [Example 56], the EC50 [1] was at least 20 mg/L and the inhibition of growth at 2 ppm [2] was under 50%.
`Cn1nnnc1-n1c(OCc2cccc(N)n2)nc2c(Cl)cccc21` [Example 59] was tested, and the EC50 [1] was under 20 mg/L and the inhibition of growth at 2 ppm [2] was over 99%.
`Cc1c(OC(F)(F)C(F)(F)F)ccnc1COc1nc2c(Cl)cccc2n1-c1nnnn1C` [Example 60] was tested, and the EC50 [1] was under 20 mg/L and the inhibition of growth at 2 ppm [2] was over 99%.
Work on `COc1ccnc(COc2nc3c(Cl)cccc3n2-c2nnnn2C)c1` [Example 61] yielded an EC50 [1] of under 20 mg/L and an inhibition of growth at 2 ppm [2] of over 99%.
`COCCCOc1ccnc(COc2nc3c(Cl)cccc3n2-c2nnnn2C)c1C` [Example 62] showed an EC50 [1] of under 20 mg/L and an inhibition of growth at 2 ppm [2] of over 99%.
`CC(C)CCCNc1cccc(COc2nc3c(Cl)cccc3n2-c2nnnn2C)n1` [Example 63] showed an EC50 [1] of under 20 mg/L and an inhibition of growth at 2 ppm [2] of over 99%.
Work on `Cn1nnnc1-n1c(OCc2nc3ccccc3n2C)nc2ccccc21` [Example 64] yielded an EC50 [1] of under 20 mg/L and an inhibition of growth at 2 ppm [2] of over 99%.
`Cn1nnnc1-n1c(OCc2ccc3ccccc3n2)nc2ccccc21` [Example 65] showed an EC50 [1] of at least 20 mg/L and an inhibition of growth at 2 ppm [2] of 50 to 99%.
`Cn1nnnc1-n1c(OCc2nc3ccccc3n2C)nc2c(Cl)cccc21` [Example 66] was tested, and the EC50 [1] was under 20 mg/L and the inhibition of growth at 2 ppm [2] was over 99%.
`Cn1nnnc1-n1c(OCc2cc([N+](=O)[O-])ccn2)nc2c(Cl)cccc21` [Example 69] gave an EC50 [1] of at least 20 mg/L and an inhibition of growth at 2 ppm [2] of 50 to 99%.
`Cn1nnnc1-n1c(OCc2nc3ccccc3s2)nc2c(Cl)cccc21` [Example 70] was tested, and the EC50 [1] was under 20 mg/L and the inhibition of growth at 2 ppm [2] was over 99%.
`Cn1nnnc1-n1c(OCc2cccc(CO)n2)nc2c(Cl)cccc21` [Example 71] was tested, and the EC50 [1] was at least 20 mg/L and the “% control Pythium ultimum 2 ppm” value [2] was “D”.
Work on `Cn1nnnc1-n1c(OCc2cccc(NCCc3ccccc3)n2)nc2c(Cl)cccc21` [Example 73] yielded an EC50 [1] of under 20 mg/L and an inhibition of growth at 2 ppm [2] of over 99%.
Compound `Cn1nnnc1-n1c(OCc2cccc(NCCOc3ccccc3)n2)nc2c(Cl)cccc21` [Example 74] has an EC50 [1] of under 20 mg/L and an inhibition of growth at 2 ppm [2] of over 99%.
`Cn1nnnc1-n1c(OCc2cc(N3CCOCC3)ccn2)nc2c(Cl)cccc21` [Example 75] was tested, and the EC50 [1] was at least 20 mg/L and the inhibition of growth at 2 ppm [2] was 50 to 99%.
With `CCOc1ccnc(COc2nc3ccccc3n2-c2nnnn2C)c1` [Example 76] the EC50 [1] was at least 20 mg/L and the inhibition of growth at 2 ppm [2] was over 99%.
In the case of `CCCOc1ccnc(COc2nc3ccccc3n2-c2nnnn2C)c1` [Example 77], the EC50 [1] is reported as under 20 mg/L and the inhibition of growth at 2 ppm [2] is reported as over 99%.
For `COc1cc(F)cc2c1nc(OCc1ccccn1)n2-c1nnnn1C` [Example 78], the EC50 [1] was under 20 mg/L and the inhibition of growth at 2 ppm [2] was 50 to 99%.
`Cn1nnnc1-n1c(OCc2cccc(NCC3CCCC3)n2)nc2ccccc21` [Example 80] showed an EC50 [1] of under 20 mg/L and an inhibition of growth at 2 ppm [2] of over 99%.
For `Cn1nnnc1-n1c(OCc2cccc(NC3CCCC3)n2)nc2ccccc21` [Example 81], the EC50 [1] was under 20 mg/L and the inhibition of growth at 2 ppm [2] was over 99%.
With `CCC(C)Nc1cccc(COc2nc3ccccc3n2-c2nnnn2C)n1` (centres unmarked) [Example 82] the EC50 [1] was under 20 mg/L and the inhibition of growth at 2 ppm [2] was over 99%.
Work on `Cn1nnnc1-n1c(OCc2cccc(NCCC(F)(F)F)n2)nc2ccccc21` [Example 83] yielded an EC50 [1] of under 20 mg/L and an inhibition of growth at 2 ppm [2] of over 99%.
`Cn1nnnc1-n1c(OCc2cccc(NCc3ccc(Cl)cc3)n2)nc2ccccc21` [Example 84] gave an EC50 [1] of under 20 mg/L and an inhibition of growth at 2 ppm [2] of over 99%.
For `Cn1nnnc1-n1c(OCc2cccc(NCc3cccc(Cl)c3)n2)nc2ccccc21` [Example 85], the EC50 [1] was under 20 mg/L and the inhibition of growth at 2 ppm [2] was over 99%.
Compound `Cn1nnnc1-n1c(OCc2cccc(NCc3ccc(F)cc3)n2)nc2ccccc21` [Example 86] has an EC50 [1] of under 20 mg/L and an inhibition of growth at 2 ppm [2] of over 99%.
`Cn1nnnc1-n1c(OCc2cccc(NCC3CC3)n2)nc2c(Cl)cccc21` [Example 87] gave an EC50 [1] of under 20 mg/L and an inhibition of growth at 2 ppm [2] of over 99%.
With `CCCNc1cccc(COc2nc3c(Cl)cccc3n2-c2nnnn2C)n1` [Example 88] the EC50 [1] was under 20 mg/L and the inhibition of growth at 2 ppm [2] was over 99%.
For `Cn1nnnc1-n1c(OCc2cccc(NCc3ccccc3)n2)nc2c(Cl)cccc21` [Example 89], the EC50 [1] was under 20 mg/L and the inhibition of growth at 2 ppm [2] was over 99%.
With `CC(C)CCNc1cccc(COc2nc3c(Cl)cccc3n2-c2nnnn2C)n1` [Example 90] the EC50 [1] was under 20 mg/L and the inhibition of growth at 2 ppm [2] was over 99%.
With `Cn1nnnc1-n1c(OCc2cccc(NCC3CC3)n2)nc2c(F)cccc21` [Example 91] the EC50 [1] was under 20 mg/L and the inhibition of growth at 2 ppm [2] was over 99%.
Work on `Cn1nnnc1-n1c(OCc2cccc(NCc3ccccc3Cl)n2)nc2ccccc21` [Example 92] yielded an EC50 [1] of under 20 mg/L and an inhibition of growth at 2 ppm [2] of over 99%.
`Cn1nnnc1-n1c(OCc2cccc(NCc3cccc(C#N)c3)n2)nc2ccccc21` [Example 93] showed an EC50 [1] of under 20 mg/L and an inhibition of growth at 2 ppm [2] of over 99%.
In the case of `COc1cccc(CNc2cccc(COc3nc4ccccc4n3-c3nnnn3C)n2)c1` [Example 94], the EC50 [1] is reported as under 20 mg/L and the inhibition of growth at 2 ppm [2] is reported as over 99%.
Work on `Cc1cccc(CNc2cccc(COc3nc4ccccc4n3-c3nnnn3C)n2)c1` [Example 95] yielded an EC50 [1] of under 20 mg/L and an inhibition of growth at 2 ppm [2] of over 99%.
In the case of `Cn1nnnc1-n1c(OCc2cccc(NCc3cccc(OC(F)(F)F)c3)n2)nc2ccccc21` [Example 96], the EC50 [1] is reported as under 20 mg/L and the inhibition of growth at 2 ppm [2] is reported as over 99%.
`Cn1nnnc1-n1c(OCc2cccc(NCc3cccc(C(F)(F)F)c3)n2)nc2ccccc21` [Example 97] gave an EC50 [1] of under 20 mg/L and an inhibition of growth at 2 ppm [2] of over 99%.
`CCCCNc1cccc(COc2nc3c(Cl)cccc3n2-c2nnnn2C)n1` [Example 98] was tested, and the EC50 [1] was under 20 mg/L and the inhibition of growth at 2 ppm [2] was over 99%.
`CCCNc1cccc(COc2nc3c(Br)cccc3n2-c2nnnn2C)n1` [Example 99] gave an EC50 [1] of under 20 mg/L and an inhibition of growth at 2 ppm [2] of over 99%.
`Cn1nnnc1-n1c(OCc2cccc(NCC3CC3)n2)nc2c(Br)cccc21` [Example 100] was tested, and the EC50 [1] was under 20 mg/L and the inhibition of growth at 2 ppm [2] was over 99%.
`Cc1cccc(CNc2cccc(COc3nc4c(Cl)cccc4n3-c3nnnn3C)n2)c1` [Example 101] was tested, and the EC50 [1] was under 20 mg/L and the inhibition of growth at 2 ppm [2] was 50 to 99%.
Work on `Cc1cccc(CNc2cccc(COc3nc4c(Br)cccc4n3-c3nnnn3C)n2)c1` [Example 102] yielded an EC50 [1] of under 20 mg/L and an inhibition of growth at 2 ppm [2] of 50 to 99%.
`CC(C)Nc1cccc(COc2nc3c(Cl)cccc3n2-c2nnnn2C)n1` [Example 103] showed an EC50 [1] of under 20 mg/L and an inhibition of growth at 2 ppm [2] of over 99%.
`Cn1nnnc1-n1c(OCc2nc3ccccc3s2)nc2c(Br)cccc21` [Example 104] was tested, and the EC50 [1] was under 20 mg/L and the inhibition of growth at 2 ppm [2] was over 99%.
`Cn1nnnc1-n1c(OCc2nc3ccccc3n2C)nc2c(Br)cccc21` [Example 105] was tested, and the EC50 [1] was under 20 mg/L and the inhibition of growth at 2 ppm [2] was over 99%.
With `Cn1nnnc1-n1c(OCc2cccc(N)n2)nc2c(Br)cccc21` [Example 106] the EC50 [1] was under 20 mg/L and the inhibition of growth at 2 ppm [2] was 50 to 99%.
`Cn1nnnc1-n1c(OCc2cc(N)ccn2)nc2ccccc21` [Example 108, 2-(((1-(1-Methyl-1H-tetrazol-5-yl)-1H-benzo[d]imidazol-2-yl)oxy)methyl)pyridin-4-amine] was tested, and the EC50 [1] was at least 20 mg/L and the “% control Pythium ultimum 2 ppm” value [2] was “D”.
